Test results taken from ChEMBL document CHEMBL1140536, “Versatile templates for the development of novel kinase inhibitors: Discovery of novel CDK inhibitors” (Bioorg Med Chem Lett, 2007).

Test system: not listed separately
Assay: Inhibition of recombinant cyclin A/CDK2 expressed in Sf9 cells
Set-up: species or system Homo sapiens
Details: not given

First: Fc1ccccc1-c1cn2ccnc2c(NCc2ccncc2)n1
Second: Brc1cnc2c(NCc3ccncc3)nc(-c3ccccc3)cn12
The IC50 of the first is 1.8-fold higher: 800 nM for the first, 440 nM for the second. The second is the more potent here.

Compared with `Brc1cnc2c(NCc3ccncc3)cc(-c3ccccc3)cn12`, `Brc1cnn2c(NCc3ccncc3)cc(-c3ccccc3)cc12` is 6.4-fold higher in IC50: 700 nM for the first, 4500 nM for the second.

`c1ccc(-c2cc(NCc3ccncc3)n3nccc3n2)cc1` and `Clc1cccc(-c2cc(NCc3ccncc3)n3nccc3n2)c1Cl` are the same in IC50: 500 nM for the first, 500 nM for the second.

Test system: A2780
Assay: Growth inhibition of A2780 cells after 24 hrs by thymidine incorporation assay
Format: functional, cell-based
Details: Homo sapiens, A2780, 24 h

Work on `Brc1cnc2c(NCc3ccncc3)nc(-c3ccccc3)cn12` yielded an IC50 of 2000 nM.
